From ChEMBL document CHEMBL1121687, “2-Benzodioxinylaminoethanols: a new class of beta-adrenergic blocking and antihypertensive agents” (J Med Chem, 1981)
Calls of active or inactive are those of the source. The calls are words filed in the database; no cut-off is given here.

Tests used:
[1] = biological target: Beta-1 adrenergic receptor (Cavia porcellus, UniProt B0FL73); assay: (§1) Antagonist activity of compound against Beta-1 adrenergic receptor in isolated guinea pig left atria; assay type: functional; settings: read-out: pA2 app (converted)
Canis lupus familiaris = assay: Dose required to induce at least 50% inhibition of the isoprenaline-induced effect, administered intravenously
[2] = biological target: Beta-1 adrenergic receptor (Cavia porcellus) (UniProt B0FL73); assay: as §1; assay type: functional
Rattus norvegicus [3] = assay: Duration of action of 10 mg/kg intravenous dose of compound was determined in SHR test for antihypertensive activity in rats; assay type: functional
Rattus norvegicus [4] = assay: Change in systolic blood pressure in anesthetized spontaneous hypertensive rats when 10 mg/kg of compound was administered intravenously; assay type: functional, Artery; settings: route intravenous
Rattus norvegicus [5] = assay: Change in diastolic blood pressure in anesthetized spontaneous hypertensive rats when 10 mg/kg of compound was administered intravenously; assay type: functional, Artery; settings: route intravenous
Rattus norvegicus [6] = assay: Change in diastolic blood pressure in anesthetized spontaneous hypertensive rats when 5 mg/kg of compound was administered intravenously; assay type: functional, Artery; settings: route intravenous
Rattus norvegicus [7] = assay: Change in systolic blood pressure in anesthetized spontaneous hypertensive rats when 5 mg/kg of compound was administered intravenously; assay type: functional, Artery; settings: route intravenous
Rattus norvegicus [8] = organism: Rattus norvegicus; assay: Duration of action of compound was determined for antihypertensive action in rats; assay type: functional
Rattus norvegicus [9] = assay: Change in systolic blood pressure in anesthetized spontaneous hypertensive rats when 20 mg/kg of compound was administered intravenously; assay type: functional, Artery; settings: route intravenous
Rattus norvegicus [10] = assay: Change in diastolic blood pressure in anesthetized spontaneous hypertensive rats when 20 mg/kg of compound was administered intravenously; assay type: functional, Artery; settings: route intravenous
[11] = tested on: Beta-2 adrenergic receptor (Cavia porcellus); assay: Antagonist activity of compound against beta-2 adrenergic receptor in isolated guinea pig trachea; Inactive at a concentration of 10e-4 M/L
Rattus norvegicus [12] = assay: Duration of action of 20 mg/kg intravenous dose of compound was determined in SHR test for antihypertensive activity in rats; assay type: functional
[13] = biological target: Beta-2 adrenergic receptor (Cavia porcellus) (UniProt Q8K4Z4); assay: Antagonist activity of compound against Beta-2 adrenergic receptor in isolated guinea pig trachea; inactive; assay type: functional, tissue-based
Rattus norvegicus [14] = assay: Change in systolic blood pressure in anesthetized spontaneous hypertensive rats when 2.5 mg/kg of compound was administered intravenously; settings: route intravenous
[15] = biological target: Beta-2 adrenergic receptor (Cavia porcellus) (UniProt Q8K4Z4); assay: Antagonist activity of compound (10e-4 mol/L) against beta 2-adrenergic receptor in isolated guinea pig trachea; Inactive at a concentration of 10e-4 M/L; assay type: functional, tissue-based
Rattus norvegicus [16] = assay: Duration of action of 5 mg/kg intravenous dose of compound was determined in SHR test for antihypertensive activity in rats; assay type: functional
Rattus norvegicus [17] = assay: Change in systolic blood pressure in anesthetized spontaneous hypertensive rats when 2.5 mg/kg of compound was administered intravenously; settings: route intravenous; remark: listed apart in the source
Rattus norvegicus [18] = assay: Change in diastolic blood pressure in anesthetized spontaneous hypertensive rats when 2 mg/kg of compound was administered intravenously; assay type: functional, Artery; settings: route intravenous
Rattus norvegicus [19] = assay: Duration of action of 2 mg/kg intravenous dose of compound was determined in SHR test for antihypertensive activity in rats; assay type: functional
[20] = biological target: Beta-2 adrenergic receptor (Cavia porcellus) (UniProt Q8K4Z4); assay: Antagonist activity of compound against Beta-2 adrenergic receptor in isolated guinea pig trachea; Inactive at a concentration of 10e-4 M/L; assay type: functional, tissue-based

Sequence of Beta-2 adrenergic receptor (Cavia porcellus) (UniProt Q8K4Z4) (Q8K4Z4 whole entry, looked up): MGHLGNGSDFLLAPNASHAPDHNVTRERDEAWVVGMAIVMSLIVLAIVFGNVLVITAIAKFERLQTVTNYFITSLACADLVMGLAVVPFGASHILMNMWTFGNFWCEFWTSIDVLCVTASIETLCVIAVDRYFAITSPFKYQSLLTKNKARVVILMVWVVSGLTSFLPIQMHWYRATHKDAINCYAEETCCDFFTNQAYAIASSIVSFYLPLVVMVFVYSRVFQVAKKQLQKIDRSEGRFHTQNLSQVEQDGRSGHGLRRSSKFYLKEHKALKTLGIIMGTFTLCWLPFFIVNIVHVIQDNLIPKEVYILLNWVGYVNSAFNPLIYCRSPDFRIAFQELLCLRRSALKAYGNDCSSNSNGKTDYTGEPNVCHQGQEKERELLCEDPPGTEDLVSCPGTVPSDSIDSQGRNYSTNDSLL
Sequence of Beta-1 adrenergic receptor (B0FL73 whole entry): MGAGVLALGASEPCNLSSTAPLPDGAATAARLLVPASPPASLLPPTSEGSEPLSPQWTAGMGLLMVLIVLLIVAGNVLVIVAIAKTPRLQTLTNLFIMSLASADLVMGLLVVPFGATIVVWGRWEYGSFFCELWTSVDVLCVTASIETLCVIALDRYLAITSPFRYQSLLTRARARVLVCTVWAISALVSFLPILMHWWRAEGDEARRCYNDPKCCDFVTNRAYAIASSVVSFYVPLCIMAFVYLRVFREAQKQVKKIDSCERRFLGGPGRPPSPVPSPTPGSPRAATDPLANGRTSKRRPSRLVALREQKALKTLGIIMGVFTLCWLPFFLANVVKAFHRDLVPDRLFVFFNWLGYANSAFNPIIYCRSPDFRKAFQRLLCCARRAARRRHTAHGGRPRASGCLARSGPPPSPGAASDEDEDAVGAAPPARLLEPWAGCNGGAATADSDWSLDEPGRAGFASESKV
Sequence of Beta-1 adrenergic receptor (Cavia porcellus) (B0FL73 1-467): as the sequence (B0FL73 whole entry) above

SMILES: CC(C)(C)NCC(O)C1=COc2ccccc2O1 (stereo not given)
- Kb [1]: 8.51 nM
- Dose (Canis lupus familiaris): 1 mg/kg
- pD2 app [2]: 4.8
- Duration of action (Rattus norvegicus [3]): 25 min
- Change in BP (Rattus norvegicus [4]): -50%
- Change in BP (Rattus norvegicus [5]): -57%

SMILES: CC(C)NCC(O)COc1cccc2ccccc12 (stereo not given) [PROPRANOLOL]
- Dose (Canis lupus familiaris): 0.25 mg/kg
- Change in BP (Rattus norvegicus [6]): -64%
- Change in BP (Rattus norvegicus [7]): -54%
- Duration of action (Rattus norvegicus [8]): 30 min

SMILES: OC(CN1CCCCCC1)C1=COc2ccccc2O1 (stereo not given)
- Kb [1]: 1170 nM
- Dose (Canis lupus familiaris): 10 mg/kg
- Duration of action (Rattus norvegicus [3]): 20 min
- Change in BP (Rattus norvegicus [4]): -44%
- Change in BP (Rattus norvegicus [5]): -57%

SMILES: OC(CN1CCN(c2cccc(C(F)(F)F)c2)CC1)C1=COc2ccccc2O1 (stereo not given)
- Change in BP (Rattus norvegicus [9]): -65%
- Dose (Canis lupus familiaris): 10 mg/kg
- Change in BP (Rattus norvegicus [10]): -83%
- pA2 app [11]: inactive
- Duration of action (Rattus norvegicus [12]): 20 min
- pD2 app [13]: inactive

SMILES: COc1ccccc1N1CCN(CC(O)C2=COc3ccccc3O2)CC1 (stereo not given)
- Change in BP (Rattus norvegicus [14]): -41%
- pA2 app [15]: inactive
- Duration of action (Rattus norvegicus [16]): >45 min
- pD2 app [2]: 4.84
- Change in BP (Rattus norvegicus [17]): -41%
- Change in BP (Rattus norvegicus [18]): -41%
- Change in BP (Rattus norvegicus [6]): -41%
- Duration of action (Rattus norvegicus [19]): >45 min

SMILES: CC(=O)Nc1ccc(OCC(O)CNC(C)C)cc1 (stereo not given) [PRACTOLOL]
- pD2 app [20]: inactive
- Change in BP (Rattus norvegicus [9]): -32%
- Dose (Canis lupus familiaris): 2.5 mg/kg
- Change in BP (Rattus norvegicus [10]): -31%
- Duration of action (Rattus norvegicus [8]): 45 min

SMILES: CC(C)NCC(O)C1=COc2ccccc2O1 (stereo not given)
- Duration of action (Rattus norvegicus [16]): >45 min
- Change in BP (Rattus norvegicus [6]): -60%
- Change in BP (Rattus norvegicus [7]): -49%

SMILES: Oc1nc2ccccc2n1C1CCN(CC(O)C2=COc3ccccc3O2)CC1 (stereo not given)
- Change in BP (Rattus norvegicus [14]): -38%
- pD2 app [20]: inactive
- Dose (Canis lupus familiaris): 1 mg/kg
- Duration of action (Rattus norvegicus [16]): >25 min
- pD2 app [2]: 4.89
- Change in BP (Rattus norvegicus [17]): -38%
- Change in BP (Rattus norvegicus [18]): -43%
- Change in BP (Rattus norvegicus [6]): -43%
- Duration of action (Rattus norvegicus [19]): >25 min

SMILES: OC(CN1CCCCC1)C1=COc2ccccc2O1 (stereo not given)
- Kb [1]: 617 nM
- Change in BP (Rattus norvegicus [9]): -66%
- Change in BP (Rattus norvegicus [10]): -78%
- Duration of action (Rattus norvegicus [12]): 20 min

SMILES: COc1ccc(CCNCC(O)C2=COc3ccccc3O2)cc1OC (stereo not given)
- Dose (Canis lupus familiaris): 1 mg/kg
- Duration of action (Rattus norvegicus [16]): >25 min
- Change in BP (Rattus norvegicus [17]): -33%
- Change in BP (Rattus norvegicus [18]): -37%
- Duration of action (Rattus norvegicus [19]): >25 min
